Results as given in PMC6117091, “The C. difficile clnRAB operon initiates adaptations to the host environment in response to LL-37” (PLoS Pathogens, 2018).
In brackets after ≈: the same amount, converted by molar mass. Where two headings read alike, the source gives them in different places. Where a SMILES comes first, the peptide text is derived from it. Bridges are numbered along the chain shown (N, C = ends). Where no end group is shown, it is not given here. [ ]: non-standard residue; d: D form. The star is where a group is joined. X1 = CC[C@H](C)CCCCC(=O)*; Dab = NCC[C@H](N)C(=O)O

Assays:
[1] = system: C. difficile clnR mutant (MC885); experiment: Minimum inhibitory concentration (MIC); format: cell-based, Clostridioides difficile; settings: Mueller-Hinton Broth, 24 h, 37°C, anaerobic, ~5 x 10^5 CFU/ml
Protocol: (§1) Minimum inhibitory concentrations (MIC) were determined as previously described. […] Briefly, overnight cultures of C. difficile strains were diluted 1:50 in Mueller-Hinton Broth (Difco) and grown to OD600 of 0.45 (~5 x 10^7 CFU/ml). Cultures were then diluted 1:10 in MHB and seeded at a further 1:10 dilution in a round-bottom 96-well plate prepared with serial dilutions of antimicrobials for a starting concentration of ~5 x 10^5 CFU/ml. Plates were incubated for 24 h at 37°C in the anaerobic chamber.

[2] = system: C. difficile clnAB mutant (MC935); experiment: Minimum inhibitory concentration (MIC); format: cell-based, Clostridioides difficile; settings: Mueller-Hinton Broth, 24 h, 37°C, anaerobic, ~5 x 10^5 CFU/ml
Protocol: as §1

C. difficile 630Δerm = experiment: Minimum inhibitory concentration (MIC); format: cell-based, Clostridioides difficile; settings: Mueller-Hinton Broth, 24 h, 37°C, anaerobic, ~5 x 10^5 CFU/ml
Protocol: as §1

[3] = system: clnR expression in C. difficile 630Δerm; experiment: clnR expression by qRT-PCR after exposure to antimicrobials (induction specificity); settings: for Induction of clnR transcription (in words): concentrations of Table 1; for Relative clnR expression: BHIS, mean of three replicates ± SEM
[4] = target: LL-37 (human cathelicidin) (human)
[5] = Clostridioides difficile, read-out: MIC

## CC1(C)S[C@@H]2[C@H](NC(=O)[C@H](N)c3ccccc3)C(=O)N2[C@H]1C(=O)O [Ampicillin, ampicillin]
[1]; [5]
  MIC: 4 µg/mL (≈ 11.4 µM)
[2]; [5]
  MIC: 4 µg/mL (≈ 11.4 µM)
C. difficile 630Δerm; [5]
  MIC: 4 µg/mL (≈ 11.4 µM)
[3]
  Induction of clnR transcription (in words): none of the other cell-surface-active antimicrobials tested

## CC[C@H](C)CCCCC(=O)N[C@@H](CCN)C(=O)N[C@H](C(=O)N[C@@H](CCN)C(=O)N[C@H]1CCNC(=O)[C@H]([C@@H](C)O)NC(=O)[C@H](CCN)NC(=O)[C@H](CCN)NC(=O)[C@H](CC(C)C)NC(=O)[C@@H](Cc2ccccc2)NC(=O)[C@H](CCN)NC1=O)[C@@H](C)O [Polymyxin B, polymyxin B] (X1-[Dab]T[Dab][Dab][Dab][dF]L[Dab][Dab]T; lactam 4-C (inferred); N-terminus assumed)
[1]
  MIC: 500 µg/mL (≈ 415 µM)
[2]
  MIC: 500 µg/mL (≈ 415 µM)
C. difficile 630Δerm
  MIC: 500 µg/mL (≈ 415 µM)
[3]; 200 μg/ml, normalized to 630Δerm without antimicrobials
  Relative clnR expression: 1.2 ± 0.2
[3]
  Induction of clnR transcription (in words): none of the other cell-surface-active antimicrobials tested

## CN[C@H](CC(C)C)C(=O)N[C@H]1C(=O)N[C@@H](CC(N)=O)C(=O)N[C@H]2C(=O)N[C@H]3C(=O)N[C@H](C(=O)N[C@H](C(=O)O)c4cc(O)cc(O)c4-c4cc3ccc4O)[C@H](O)c3ccc(c(Cl)c3)Oc3cc2cc(c3O[C@@H]2O[C@H](CO)[C@@H](O)[C@H](O)[C@H]2O[C@H]2C[C@](C)(N)[C@H](O)[C@H](C)O2)Oc2ccc(cc2Cl)[C@H]1O [Vancomycin, vancomycin]
[1]; [5]
  MIC: 1 µg/mL (≈ 0.69 µM)
[2]; [5]
  MIC: 1 µg/mL (≈ 0.69 µM)
C. difficile 630Δerm; [5]
  MIC: 1 µg/mL (≈ 0.69 µM)
[3]
  Induction of clnR transcription (in words): none of the other cell-surface-active antimicrobials tested

## Lysozyme
[3]; 1 mg/ml, normalized to 630Δerm without antimicrobials
  Relative clnR expression: 1.1 ± 0.3
[3]
  Induction of clnR transcription (in words): none of the other cell-surface-active antimicrobials tested

## Recombinant N-terminally His-tagged ClnR (natural protein)
[4]
  Kd: 83 nM

## mCRAMP
[3]; 2 μg/ml, normalized to 630Δerm in BHIS without antimicrobials
  Relative clnR expression: 111.4 ± 27.3
[3]
  Induction of clnR transcription (in words): also induced

## nisin (ITSISLCTPGCKTGALMGCNMKTATCHCSIHVSK; also: lantibiotic, modified residues and rings not given here; UniProt P13068 24-57, looked up)
[1]
  MIC: 360 µg/mL
[2]
  MIC: 360 µg/mL
C. difficile 630Δerm
  MIC: 360 µg/mL
[3]; 7.5 μg/ml, normalized to 630Δerm without antimicrobials
  Relative clnR expression: 1.1 ± 0.4
[3]
  Induction of clnR transcription (in words): none of the other cell-surface-active antimicrobials tested
